Laboratory results reported in patent publication US9718835B2 (China Medical University Hospital, priority 2013, dated 2017).
Read-outs that look alike come from different tables or passages of the source.

Tests used:
SKOV3 (Ovary cancer) = experiment: cells; assay type: cell-based, human
HCT 116 (Colon cancer) = experiment: cells; assay type: cell-based, human
[1] = tested on: MDA-MB-468 (Breast cancer); experiment: cells; assay type: cell-based, human
A549 (Lung cancer) = experiment: cells; assay type: cell-based, human
[2] = tested on: DU-145 (hormone-insensitive prostate cancer); experiment: Sulforhodamine B cytotoxicity assay, DU-145; assay type: cell-based, human; settings: Table 1; 72 h; average ± SD
Protocol: (§1) The 12 novel 1-derivatives 9a-l were evaluated for in vitro antiproliferative activity against four human tumor cell lines, KB (nasopharyngeal), A-549 (lung), DU-145 (prostate), and KBvin (MDR KB subline), by using a sulforhodamine B colorimetric assay with triplicate experiments.^30 Compounds 1 and 3 were used as controls.
(§2) The human tumor cell lines used in this manuscript were A-549 (lung carcinoma), MDA-MB-231 (triple-negative breast cancer), DU-145 (hormone-insensitive prostate cancer), KB (originally isolated from epidermoid carcinoma of the nasopharynx), KBvin (vincristine-resistant KB subline), and HCT116 (colorectal adenocarcinoma). These cell lines were obtained from the Lineberger Comprehensive Cancer Center (UNC-CH) or from ATCC (Manassas, Va.), except KBvin, which was a generous gift of Professor Y.-C. Cheng (Yale University). All cell lines were maintained and assayed in RPMI-1640 medium containing 2 mM L-glutamine and 25 mM HEPES (HyClone), supplemented with 10% heat-inactivated fetal bovine serum (HyClone), 100 μg/mL streptomycin, 100 IU/mL penicillin, and 0.25 μg/mL amphotericin B (Cellgro) in a humidified atmosphere containing 5% CO2 in air. Compound stock solutions were prepared at 10 mM in DMSO and diluted with culture medium with the final DMSO concentration ≦0.01% (v/v), a concentration without effect on cell growth. The 4-6×10^3 cells/well were cultured for 72 h with various concentrations of test compounds in 96-well plate at 37° C. […] Each assay was performed in triplicate with duplicated samples.

A-549 (lung carcinoma) = experiment: Sulforhodamine B cytotoxicity assay, A-549; assay type: cell-based, human; settings: Table 1; 72 h; average ± SD
Source text: as §2, with “Compound stock solutions were prepared at 10 mM in DMSO and diluted with culture medium with the final DMSO concentration ≦0.01% (v/v), a concentration without effect on cell growth.” left out

[3] = tested on: KB (epidermoid carcinoma of the nasopharynx); experiment: Sulforhodamine B cytotoxicity assay, KB; assay type: cell-based, human; settings: Table 1; 72 h; average ± SD; read-out: IC50 KB
Protocol: as §1, §2

[4] = tested on: KBvin (vincristine-resistant KB subline); experiment: Sulforhodamine B cytotoxicity assay, KBvin; assay type: cell-based, human; settings: Table 1; 72 h; average ± SD; read-out: IC50 KBvin
Source text: as §2, with “Compound stock solutions were prepared at 10 mM in DMSO and diluted with culture medium with the final DMSO concentration ≦0.01% (v/v), a concentration without effect on cell growth.” left out

[5] = target: T1, recombinant human Topoisomerase I (Homo sapiens, UniProt P11387); experiment: Topoisomerase I activity assay in a cell-free system; assay type: biochemical; settings: purified recombinant human Topo I
T1 construct: purchased TopoGEN
T1 sequence (P11387 1-765): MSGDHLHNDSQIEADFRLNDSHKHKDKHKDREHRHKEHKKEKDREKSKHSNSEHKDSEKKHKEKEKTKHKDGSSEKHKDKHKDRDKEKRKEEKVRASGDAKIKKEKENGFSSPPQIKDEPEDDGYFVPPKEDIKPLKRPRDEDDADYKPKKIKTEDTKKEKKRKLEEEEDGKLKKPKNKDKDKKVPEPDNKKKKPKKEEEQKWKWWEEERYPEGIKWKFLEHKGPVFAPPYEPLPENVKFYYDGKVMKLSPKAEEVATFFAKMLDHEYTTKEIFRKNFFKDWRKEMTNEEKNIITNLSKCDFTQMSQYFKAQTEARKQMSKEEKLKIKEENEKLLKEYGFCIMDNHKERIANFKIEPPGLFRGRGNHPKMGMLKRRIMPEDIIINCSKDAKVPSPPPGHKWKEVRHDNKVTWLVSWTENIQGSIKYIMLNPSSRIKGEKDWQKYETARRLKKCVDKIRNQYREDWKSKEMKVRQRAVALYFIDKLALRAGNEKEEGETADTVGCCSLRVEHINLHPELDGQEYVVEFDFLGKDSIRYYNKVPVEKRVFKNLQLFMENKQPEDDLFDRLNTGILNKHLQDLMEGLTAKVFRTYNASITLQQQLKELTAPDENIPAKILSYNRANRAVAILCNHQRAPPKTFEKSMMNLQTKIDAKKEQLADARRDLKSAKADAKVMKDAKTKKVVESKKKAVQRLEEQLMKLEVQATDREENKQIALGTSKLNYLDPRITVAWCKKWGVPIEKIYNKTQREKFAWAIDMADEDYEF
Protocol: Inhibition of Topo I activity by 9a in a cell-free system. A 1-delivative with an esterified 20-hydroxy group is expected to be activated by digestion with carboxylesterases. […] We authenticated the inhibitory effect of 9a against Topo I in a dose-dependent manner Thus, we confirmed that 9a is a new class of Topo I inhibitor.
One unit of recombinant human Topoisomerase I enzyme (TopoGEN) was pre-incubated for 20 min at 37° C. with vehicle, 9a, 1, 3, or SN-38 in a final volume of 20 μL reaction buffer (10 mM Tris-HCl, pH 7.9, 1 mM EDTA, 150 mM NaCl, 0.1% BSA, 0.1 mM spermidine, 5% glycerol) was then incubated with 250 ng of supercoiled plasmid DNA for 20 min. The supercoiled, relaxed, or nicked DNA was separated by 1% agarose gel in 1×TAE (Tris-Acetate-EDTA) buffer. Ethidium bromide stained agarose gel was photographed using Gel Doc XR (Bio-Rad).

[6] = Homo sapiens, SK-OV-3, Table 6, read-out: In vitro cytotoxicity SKOV3 (Ovary cancer)
[7] = Homo sapiens, HCT-116, Table 6, read-out: In vitro cytotoxicity HCT 116 (Colon cancer)
[8] = Homo sapiens, MDA-MB-468, Table 6, read-out: In vitro cytotoxicity MDA-MB-468 (Breast cancer)
[9] = Homo sapiens, A549, Table 6, read-out: In vitro cytotoxicity A549 (Lung cancer)

Row | SMILES | IC50 [2] [nM] | IC50 (A-549 (lung carcinoma)) [nM] | IC50 [3] [nM] | IC50 [4] [nM] | also measured
1 | CC[C@@]1(OC(=O)CNC(Cc2ccc(OC)cc2)=NS(=O)(=O)c2ccc(C)cc2)C(=O)OCc2c1cc1n(c2=O)Cc2cc3c(CN4CCN(C)CC4)c(O)ccc3nc2-1 [#9] | – | – | – | – | IC50 (SKOV3 (Ovary cancer); [6]): 1700 ± 279 nM; IC50 (HCT 116 (Colon cancer); [7]): 458 ± 46.3 nM; IC50 [1, 8]: 871 ± 44.9 nM; IC50 (A549 (Lung cancer); [9]): 13200 ± 1090 nM
2 | CC[C@@]1(OC(=O)CNC(Cc2ccc(OC)cc2)=NS(=O)(=O)c2ccc(C)cc2)C(=O)OCc2c1cc1n(c2=O)C(C)c2cc3ccccc3nc2-1 (stereo partly drawn) [#10] | – | – | – | – | IC50 (SKOV3 (Ovary cancer); [6]): 132 ± 24.2 nM; IC50 (HCT 116 (Colon cancer); [7]): 2090 ± 96.1 nM; IC50 [1, 8]: 1650 ± 90.8 nM; IC50 (A549 (Lung cancer); [9]): 2810 ± 416 nM
3 | CC[C@@]1(OC(=O)CNC(Cc2ccc(F)cc2)=NS(=O)(=O)c2ccc(C)cc2)C(=O)OCc2c1cc1n(c2=O)Cc2cc3ccccc3nc2-1 [#11] | – | – | – | – | IC50 (SKOV3 (Ovary cancer); [6]): 31.1 ± 6.05 nM; IC50 (HCT 116 (Colon cancer); [7]): 71.9 ± 2.59 nM; IC50 [1, 8]: 49.7 ± 6.53 nM; IC50 (A549 (Lung cancer); [9]): 123 ± 9.1 nM
4 | CC[C@@]1(OC(=O)CNC(Cc2ccccc2)=NS(=O)(=O)c2ccc(C)cc2)C(=O)OCc2c1cc1n(c2=O)Cc2cc3ccccc3nc2-1 [Compound 9b] | 130 ± 11 | 57 ± 3.9 | 180 ± 0.8 | 100 ± 7.3 | –
5 | CC[C@@]1(OC(=O)C(C)NC(Cc2ccc(OC)cc2)=NS(=O)(=O)c2ccc(C)cc2)C(=O)OCc2c1cc1n(c2=O)Cc2cc3ccccc3nc2-1 (stereo partly drawn) [Compound 9c] | 140 ± 5.9 | 89 ± 8.3 | 910 ± 60 | 87 ± 8.7 | –
6 | CC[C@@]1(OC(=O)C(C)NC(Cc2ccccc2)=NS(=O)(=O)c2ccc(C)cc2)C(=O)OCc2c1cc1n(c2=O)Cc2cc3ccccc3nc2-1 (stereo partly drawn) [Compound 9d] | 150 ± 22 | 71 ± 6.9 | 220 ± 17 | 96 ± 9.4 | –
7 | CC[C@@]1(OC(=O)C(NC(Cc2ccc(OC)cc2)=NS(=O)(=O)c2ccc(C)cc2)C(C)C)C(=O)OCc2c1cc1n(c2=O)Cc2cc3ccccc3nc2-1 (stereo partly drawn) [Compound 9e] | 1700 ± 140 | 1000 ± 110 | 11000 ± 480 | 1500 ± 110 | –
8 | CC[C@@]1(OC(=O)C(NC(Cc2ccccc2)=NS(=O)(=O)c2ccc(C)cc2)C(C)C)C(=O)OCc2c1cc1n(c2=O)Cc2cc3ccccc3nc2-1 (stereo partly drawn) [Compound 9f] | 2000 ± 250 | 1300 ± 120 | 11000 ± 280 | 2200 ± 56 | –
9 | CC[C@@]1(OC(=O)C(CC(C)C)NC(Cc2ccc(OC)cc2)=NS(=O)(=O)c2ccc(C)cc2)C(=O)OCc2c1cc1n(c2=O)Cc2cc3ccccc3nc2-1 (stereo partly drawn) [Compound 9g] | 1600 ± 96 | 950 ± 18 | 2700 ± 8.3 | 1000 ± 130 | –
10 | CC[C@@]1(OC(=O)C(CC(C)C)NC(Cc2ccccc2)=NS(=O)(=O)c2ccc(C)cc2)C(=O)OCc2c1cc1n(c2=O)Cc2cc3ccccc3nc2-1 (stereo partly drawn) [Compound 9h] | 1100 ± 16 | 890 ± 39 | 4400 ± 420 | 1800 ± 30 | –
11 | CCC(C)C(NC(Cc1ccc(OC)cc1)=NS(=O)(=O)c1ccc(C)cc1)C(=O)O[C@]1(CC)C(=O)OCc2c1cc1n(c2=O)Cc2cc3ccccc3nc2-1 (stereo partly drawn) [Compound 9i] | 8300 ± 140 | 1200 ± 66 | 9600 ± 42 | 1700 ± 160 | –
12 | CCC(C)C(NC(Cc1ccccc1)=NS(=O)(=O)c1ccc(C)cc1)C(=O)O[C@]1(CC)C(=O)OCc2c1cc1n(c2=O)Cc2cc3ccccc3nc2-1 (stereo partly drawn) [Compound 9j] | 11000 ± 750 | 6500 ± 430 | 11000 ± 1000 | 8200 ± 610 | –
13 | CC[C@@]1(OC(=O)C(Cc2ccccc2)NC(Cc2ccc(OC)cc2)=NS(=O)(=O)c2ccc(C)cc2)C(=O)OCc2c1cc1n(c2=O)Cc2cc3ccccc3nc2-1 (stereo partly drawn) [Compound 9k] | 220 ± 25 | 120 ± 10 | 850 ± 24 | 120 ± 1.9 | –
14 | CC[C@@]1(OC(=O)C(Cc2ccccc2)NC(CCO)=NS(=O)(=O)c2ccc(C)cc2)C(=O)OCc2c1cc1n(c2=O)Cc2cc3ccccc3nc2-1 (stereo partly drawn) [Compound 9l] | 200 ± 13 | 83 ± 10 | 310 ± 21 | 140 ± 8.1 | –
15 | CCc1c2c(nc3ccc(O)cc13)-c1cc3c(c(=O)n1C2)COC(=O)[C@@]3(CC)OC(=O)CNC(Cc1ccc(OC)cc1)=NS(=O)(=O)c1ccc(C)cc1 [Compound Wcpt-37] | – | – | – | – | IC50 (SKOV3 (Ovary cancer); [6]): 11.6 ± 4.08 nM; IC50 (HCT 116 (Colon cancer); [7]): 55.8 ± 2.05 nM; IC50 [1, 8]: 7.54 ± 4.07 nM; IC50 (A549 (Lung cancer); [9]): 121 ± 15.8 nM
16 | CCc1c2c(nc3ccc(OC(=O)N4CCC(N5CCCCC5)CC4)cc13)-c1cc3c(c(=O)n1C2)COC(=O)[C@@]3(CC)OC(=O)CNC(Cc1ccc(OC)cc1)=NS(=O)(=O)c1ccc(C)cc1 [Compound Wcpt-39] | – | – | – | – | IC50 (SKOV3 (Ovary cancer); Homo sapiens, SK-OV-3, read-out: In vitro cytotoxicity SKOV3 (Ovary cancer)): 4380 ± 674 nM; IC50 (HCT 116 (Colon cancer); Homo sapiens, HCT-116, read-out: In vitro cytotoxicity HCT 116 (Colon cancer)): 12500 ± 445 nM; IC50 ([1]; Homo sapiens, MDA-MB-468, read-out: In vitro cytotoxicity MDA-MB-468 (Breast cancer)): 6640 ± 497 nM; IC50 (A549 (Lung cancer); Homo sapiens, A549, read-out: In vitro cytotoxicity A549 (Lung cancer)): 30700 ± 2120 nM
17 | CCc1c2c(nc3ccc(O)cc13)-c1cc3c(c(=O)n1C2)COC(=O)[C@]3(O)CC [SN-38] | – | – | – | – | Inhibition of Topo I activity (relaxation/nicking of supercoiled plasmid DNA) [5]: inhibited Topo I activity
18 | CCc1c2c(nc3ccccc13)-c1cc3c(c(=O)n1C2)COC(=O)[C@@]3(CC)OC(=O)CNC(Cc1ccc(OC)cc1)=NS(=O)(=O)c1ccc(C)cc1 [Wcpt-03] | – | – | – | – | IC50 (SKOV3 (Ovary cancer); Table 6, read-out: In vitro cytotoxicity SKOV3 (Ovary cancer)): 8.08 ± 1.67 nM; IC50 (HCT 116 (Colon cancer); Table 6, read-out: In vitro cytotoxicity HCT 116 (Colon cancer)): 208 ± 4.79 nM; IC50 ([1]; Table 6, read-out: In vitro cytotoxicity MDA-MB-468 (Breast cancer)): 17.7 ± 3.2 nM; IC50 (A549 (Lung cancer); Table 6, read-out: In vitro cytotoxicity A549 (Lung cancer)): 48.3 ± 1.72 nM
